For test [1], the system named is filaggrin. The test is described as follows: Expression amount of filaggrin in HR-1 mouse back skin tissue (RT-qPCR and Western blot). Type of test: in vivo, hos:HR-1 mouse. Particulars: HR-1 mouse back skin, 1, 2 and 4% formulations applied once a day, vs 0% formulation control; RNA and protein; FIGS. 3A to 3C. The source says:
(§1) It was a cell obtained from primary culture and was used for confirming biochemical changes within the cell by ABT-751 or TN-16 under normal conditions, not disease conditions. • Experimental animal: Since a hos:HR-1(hairless) mouse has no hair in skin disease research, it allows skin-related research to be performed by directly applying a drug on skin or inducing skin diseases by chemical or biological allergen.
In addition, it has a skin thickness of about 0.4 mm at 8 to 10 weeks of age, which is similar to the skin of a human, and is useful for research on pathogenesis mechanism of skin diseases and confirmation of biochemical changes in skin tissue. […]
The extracted RNA was reverse-transcribed with ImProm-II TM Reverse Transcription Kit (Promega) to synthesize cDNA, and then an amount of filaggrin was measured by a quantitative PCR (qPCR) through Real-Time PCR Detection System (Bio-Rad, CFX96). […]
The thin film was reacted with an ECL solution (Thermo Fisher), and the protein after the reaction was detected using a luminescence reaction measuring instrument (Fusion Solo, Vilber). […]
Each of RNA and protein was extracted from the back skin tissue on which ABT-751 or TN-16 was applied, respectively, by the method of the text example and the expression amount of filaggrin was measured, and the results are shown in FIG. 3.
In general terms: Quantitative PCR measures a nucleic acid by following its amplification.

In test [2] the test system is normal human epidermal keratinocytes (NHEK). The test is described as follows: Cell differentiation degree in normal human epidermal keratinocytes. Particulars: 24 hours of treatment, compared with untreated control group, FIG. 2. The class given is cell-based.
Text: (§2) • A human epidermal cell line (normal human epidermal keratinocyte; NHEK) is a human fetal transdermal cell line and was used after being distributed from ATCC.
as §1
The normal human epidermal keratinocytes (NHEK) in culture was treated with ABT-751 and TN-16, respectively to measure the expression amount of filaggrin and confirm a change in cell differentiation degree.
NHEK was treated with ABT-751 and TN-16 by concentrations of 0, 0.5, 1.0, and 2.5 μM, respectively, and after 24 hours of treatment, the expression amount of filaggrin and the cell differentiation degree were observed.

Test [3] has as its system HR-1 mouse skin. The test can be described thus: Skin barrier function test (skin moisture loss, skin barrier index) in HR-1 mouse. Type of test: in vivo, hos:HR-1 mouse. Particulars: 4% formulation applied on back skin once a day, vs 0% formulation, effect grew with days of application, FIG. 4.
Text: as §1
In addition, it has a skin thickness of about 0.4 mm at 8 to 10 weeks of age, which is similar to the skin of a human, and is useful for research on pathogenesis mechanism of skin diseases and confirmation of biochemical changes in skin tissue.
2 hours after applying ABT-751 or TN-16, skin moisture loss, a skin barrier index, and a comprehensive index on the application area were measured for 3 weeks with a precision measuring instrument (Courage-khazaka electronic GmbH, MPA10), and recorded.
ABT-751 and TN-16 of 0, 1, 2, and 4% formulations were applied on the back skin of a hairless hos:HR-1 mouse (hereinafter, referred to as HR-1 mouse) in the same amount once a day for 3 weeks, respectively.
After each application, skin moisture loss and a skin barrier index were measured by the method of the test example.
After applying the control group (0% formulation ABT-751 or 0% formulation TN-16) and ABT-751 or TN-16 of a 4% formulation, respectively, skin moisture loss and a skin barrier index were measured, and the results are shown in FIG. 4.

Test [4] concerns filaggrin. The test is described as follows: Expression amount of filaggrin in NHEK by RNA extraction and RT-qPCR. Type of test: cell-based, human. To be noted: NHEK, 0, 0.5, 1.0 and 2.5 μM, after 24 hours of treatment; FIGS. 1A and 1B.
Text: as §2, §1
A normal human epidermal keratinocyte (NHEK) on which ABT-751, TN-16, or a control sample was applied, or a mouse skin tissue was dissolved using a TRI reagent (MRC), and then RNA in cells was extracted using Rneasy Mini Kit (Qiagen).
The extracted RNA was reverse-transcribed with ImProm-II TM Reverse Transcription Kit (Promega) to synthesize cDNA, and then an amount of filaggrin was measured by a quantitative PCR (qPCR) through Real-Time PCR Detection System (Bio-Rad, CFX96).
The normal human epidermal keratinocytes (NHEK) in culture was treated with ABT-751 and TN-16, respectively to measure the expression amount of filaggrin and confirm a change in cell differentiation degree. […]

Consider `COc1ccc(S(=O)(=O)Nc2cccnc2Nc2ccc(O)cc2)cc1` [ABT-751, N-[2-[(4-Hydroxyphenyl)amino]pyridin-3-yl]-4-methoxybenzenesulfonamide], for which the “expression amount of filaggrin in the skin tissue” value in test [1] is listed as “increased in a concentration-dependent manner”. Also, the cell differentiation degree entry in test [2] was “significantly increased”. For the same compound, in test [3], the skin barrier index entry was “increased” and the skin moisture loss result is reported as “decreased”. Besides, in test [4], the “expression amount of filaggrin” value was “increased depending on the ABT-751 and TN-16 treatment concentrations”.
In the case of `C/C(Nc1ccccc1)=C1/C(=O)NC(Cc2ccccc2)C1=O` (stereo not drawn) [TN-16, 3-[1-(phenylamino)ethylidene]-5-(phenylmethyl)-2,4-pyrrolidinedione], the “expression amount of filaggrin in the skin tissue” value in test [1] is recorded as “increased in a concentration-dependent manner”. Moreover, in test [3], the skin barrier index result is recorded as “increased” and the skin moisture loss entry is “decreased”. Moreover, in test [4], the “expression amount of filaggrin” value was “increased depending on the ABT-751 and TN-16 treatment concentrations”.

The record behind these values is US20240325358A1, “PHARMACEUTICAL COMPOSITION FOR PREVENTION OR TREATMENT OF ALLERGIC SKIN DISEASE OR SKIN PRURITUS” (CUePEAK BIO. Co., Ltd., priority 2023, published 2024).
